Test results reported in patent publication US20110076258A1, “METHODS OF MODULATING T CELL- DEPENDENT IMMUNE RESPONSES” (Converge Biotech Inc., priority 2008, published 2011).
Entries after “also recorded” stand apart in the source; their conditions may differ. Like-named read-outs stand apart in the source and are kept apart here.

Key:
DO11.10 T cell clones = assay: Ca2+ imaging with P2 receptor agonists; format: cell-based, mouse
ERK = ERK phosphorylation time course after CD3 stimulation, TCR signaling blocked with PP2 at 30 min; format: cell-based, mouse; conditions: for ERK phosphorylation / activity: added in combination with PP2
Procedure: (§1) After 30 min of stimulation, cells were either left untreated (first panel on the left), or treated with the src-like kinase inhibitor PP2 either alone (second panel) or in combination with oATP (third panel) or ARL (fourth panel).
(§2) In order to distinguish between TCR dependent and independent ERK activation, TCR signaling was blocked at 30 min after CD3 activation with the tyrosine kinase inhibitor PP2, which inhibits TCR dependent Ick/fyn src-like kinase activity.

CRAC channels = assay: Ca2+ dependent CRAC inactivation, two sequential Ca2+ additions after tapsigargin store depletion (Fura-2); format: cell-based, mouse; conditions: in the presence of CCCP
Procedure: FIG. 1: Increased mitochondrial Ca^2+ buffering in crt^−/− T cells. • a) After ER Ca^2+ depletion with tapsigargin, CCE was induced in crt^−/− and crt^+/+ T cell clones by the addition of 0.5 mM Ca^2+ to the extracellular medium (see Example 1). After complete washout of extracellular Ca^2+, the mitochondrial Ca^2+ buffering was visualized by the addition of ionomycin. • b) Histograms representing mitochondrial Ca^2+ content after CCE with 0.5, 1 and 2 mM extracellular Ca^2+ in crt^−/− and crt^+/+ T cell clones. • c) Increased mitochondrial Ca^2+ buffering in crt^−/− T cells retards CRAG inactivation. Cells were treated with tapsigargin followed by two separate additions of Ca^2+ to the extracellular medium (see Example 1) (see also FIG. 2C). The rate of rise of cytosolic Ca^2+ concentration was calculated at the first and second addition of Ca^2+. […] (*, P<0.05, **, P<0.001, ***, P<0.0001)
FIG. 2: Reduced Ca^2+ in the ER, unaltered mitochondrial membrane potential and decreased CRAC inactivation in crt^−/− T cells. • a) The ER Ca^2+ content of Fura-2 loaded D011.10 TCR transgenic T cell clones was assessed by addition of the SERCA pump inhibitor tapsigargin to a medium devoid of Ca^2+ (see Example 1). The passive leak of Ca^2+ from the ER into the cytosol is seen as a slow transient rise in the cytosolic Ca^2+ concentration. […]

naïve CD4^+ T cells [1] = assay: IL-2 ELISA in culture supernatants, plate-bound CD3 and CD28 stimulation; format: cell-based, mouse
Source text: An inhibitory effect of oATP on peripheral blood T cell proliferation has been described (Baricordi et al., Blood 87:682-690 (1996)). […] We therefore hypothesize that ATP released from activated T cell is part of an autocrine loop, which plays an essential role in productive T cell activation.

naive CD4 T cells = assay: T cell proliferation by CFSE dilution, plate-bound CD3 and CD28 mAbs; format: cell-based, mouse; conditions: IL-2 at 250 U/ml; PMA
Egr2 and Egr3 = assay: Real-time PCR of anergy related genes Egr2 and Egr3; format: cell-based, mouse; conditions: PMA together with oATP
Source text: NFAT nuclear translocation without concomitant MAPK activation, which can be obtained by ionomycin treatment, implements a transcriptional program leading to T cell anergy (Macian et al., Cell 109:719-731 (2002)). […] Then, we hypothesized that activation of T cells in the presence of oATP could induce T cell anergy. […] The effect of oATP was not due to altered turn-over of the TCR/CD3 complex at the cell surface, as determined by FACS analysis (data not shown).

ZAP-70 = ZAP-70 phosphorylation after CD3 stimulation, PP2 added at 30 min; format: cell-based, mouse; conditions: PP2 at 30 min after CD3 activation
Procedure: as §1, §2

MAPK = assay: Protracted MAPK (p38, Erk) activation after 16 h CD3 stimulation; format: cell-based, mouse; conditions: crt^−/− T cells, CD3 antibodies 16 h
NFAT1 = NFAT1 nuclear localization after T cell stimulation; format: cell-based, mouse
Procedure: as §2
NFAT nuclear translocation without concomitant MAPK activation, which can be obtained by ionomycin treatment, implements a transcriptional program leading to T cell anergy (Macian et al., Cell 109:719-731 (2002)). […] Then, we hypothesized that activation of T cells in the presence of oATP could induce T cell anergy.

crt^−/− CD4^+ T cells [2] = system: crt^−/− CD4^+ T cells
naïve CD4^+ T cells [3] = assay: ATP synthesis after T cell activation with CD3 antibodies; format: cell-based, mouse
Source text: CCE induced by antigenic activation of crt^−/− CD4^+ T cells might therefore be linked to a higher ATP production compared to crt^+/+ cells.

crt^−/− CD4^+ T cells [4] = assay: Propidium iodide (PI) staining of treated cells
human T cells = assay: Proliferation of CFSE-loaded T cells, plate-bound anti-CD3/28 (FACS); format: cell-based; conditions: 100 μM oATP or 200 μM of PX10 peptide, four days
Procedure: Our results point to a role for pannexin hemichannels in ATP release in T cells. […] CFSE-loaded human T cells were stimulated with plate-bound anti-CD3/28 antibodies in the presence of 100 μM oATP or 200 μM of PX10 peptide. Four days later, the proliferation was measured by FACS analysis.

mouse T cells = assay: IL-2 secretion by ELISA; format: cell-based
T cell clones = assay: Cellular ATP content by luciferase assay after TCR triggering; format: cell-based; conditions: 200 μM PX10 preincubation 30 minutes
Procedure: FIG. 10: The pannexin blocking peptide PX10 increases the intracellular ATP concentration upon TCR triggering.
Finally, we tested whether the inhibition of pannexin-mediated ATP release might lead to a fast accumulation of ATP following T cell activation. T cell clones were preincubated with 200 μM PX10 for 30 minutes. They were then stimulated with biotinylated anti-CD3 antibodies followed by crosslinking with strepavidine. Samples were collected at indicated time points, detergent-solubilized and frozen until their use in a standard luciferase assay to determine cellular ATP content.

CSc1nc(N)c2ncn([C@@H]3O[C@H](COP(=O)(O)OP(=O)(O)O)[C@@H](O)[C@H]3O)c2n1 [2MeSADP]
cells activated / responsive to P2 subtype preferring agonist (DO11.10 T cell clones): 31%

CCN(CC)c1ncnc2c1ncn2[C@@H]1O[C@H](COP(=O)(O)OP(=O)(O)C(Br)(Br)P(=O)(O)O)[C@@H](O)[C@H]1O [ARL67156]
ERK phosphorylation / activity (ERK): increase
ERK phosphorylation / activity (ERK; listed as ARL): increased

Nc1ncnc2c1ncn2[C@@H]1O[C@H](COP(=O)(O)OP(=O)(O)OP(=O)(O)O)[C@@H](O)[C@H]1O [ATP, adenosine triphosphate]
cells with calcium rise (DO11.10 T cell clones; 1 mM ATP, Ca^2+ present in the extracellular medium): 52%
cytosolic calcium rise (DO11.10 T cell clones; absence of extracellular Ca^2+): moderate cytosolic calcium rise

N#CC(C#N)=NNc1cccc(Cl)c1 [CCCP]
Ca^2+ dependent inactivation of CRAC channels, crt^−/− versus crt^+/+ cells (CRAC channels): comparable

CSc1nc(N)c2ncn([C@@H]3O[C@H](COP(=O)(O)OP(=O)(O)OP(=O)(O)O)[C@@H](O)[C@H]3O)c2n1 [MeSATP]
cells activated / responsive to P2 subtype preferring agonist (DO11.10 T cell clones): 35%

CCCCCCCCCCCCCC(=O)O[C@@H]1[C@@H](C)[C@@]2(O)[C@@H](C=C(CO)C[C@]3(O)C(=O)C(C)=C[C@@H]23)[C@@H]2C(C)(C)[C@]12OC(C)=O [PMA, phorbol 12-myristate 13-acetate, reference compound]
oATP and PPADS-dependent inhibition of IL-2 expression on addition of PMA (naïve CD4^+ T cells [1]; contemporaneous addition): rescued
oATP inhibition of T cell proliferation on addition of second agent (naive CD4 T cells): completely restored
Egr2 and Egr3 transcription (Egr2 and Egr3): robustly reduced

CC(C)(C)n1nc(-c2ccc(Cl)cc2)c2c(N)ncnc21 [PP2]
ERK phosphorylation at later time points (ERK; PP2 alone): did not significantly affect; also recorded: less affected
TCR-dependent phosphorylation of ZAP-70 (ZAP-70): affected; also recorded: efficiently inhibited

Cc1nc(N=Nc2ccc(S(=O)(=O)O)cc2S(=O)(=O)O)c(COP(=O)(O)O)c(C=O)c1O [PPADS]
prolonged activation of MAPK (p38 MAPK and Erk) (MAPK): almost completely abolished
nuclear localization of NFAT1 (NFAT1): did not significantly affect
ERK phosphorylation / activity (ERK): significant inhibition
IL-2 in the cell culture supernatant (naïve CD4^+ T cells [1]; versus untreated cells, 48 h): Analogous inhibition
cellular damage due to toxicity, PI staining versus untreated (crt^−/− CD4^+ T cells [2]): did not reveal any difference

CC[C@H]1/C=C/C=C/C[C@@H](C)[C@H](O)[C@@](C)(O)C(=O)[C@@H](C)[C@H](O)[C@@H](C)C(=O)[C@@H](C)[C@H](O)[C@@H](C)/C=C/C(=O)O[C@@H]2[C@H](C)[C@H](CC1)O[C@]1(CC[C@H](C)[C@H](C[C@@H](C)O)O1)[C@H]2C [oligomycin]
activation induced ATP synthesis (naïve CD4^+ T cells [3]): abolished
prolonged activation of MAPK (p38 MAPK and Erk) (MAPK): almost completely abolished
nuclear localization of NFAT1 (NFAT1): did not significantly affect
cellular damage due to toxicity, PI staining versus untreated (crt^−/− CD4^+ T cells [4]): did not reveal any difference

Nc1ncnc2c1ncn2[C@@H]1O[C@H](COP(=O)(O)CP(=O)(O)OP(=O)(O)O)[C@@H](O)[C@H]1O [αβMeATP]
cells activated / responsive to P2 subtype preferring agonist (DO11.10 T cell clones): 18%

BzATP
cells activated / responsive to P2 subtype preferring agonist (DO11.10 T cell clones): 33%

WRQAAFVDSY [PX10]
T cell proliferation (human T cells): comparably to oATP
T cell proliferation (human T cells; listed as PX10 peptide): strongly inhibited
IL-2 secretion (mouse T cells): strongly inhibited
intracellular ATP after TCR triggering (T cell clones): rapid intracellular rise of ATP; also recorded: increases
